tested on: HBV; assay: HBV-DNA Antiviral Assay Using HepG2.117 Cells (intracellular HBV DNA by qPCR); type: cell-based, hepatitis B virus (genotype D); details: Hepatitis B virus, HepG2.117
Procedure, shortened: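 Endpoint: qPCR copy number of intracellular HBV DNA after 3-day compound exposure, with inhibition set relative to the 2% DMSO control. The cells were doxycycline-free HepG2.117 carrying a Tet-off genotype D genome, dosed at nine 4-fold dilutions. A duplicate plate gave ATP-based viability (CC50).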

C[C@H]1CN(Cc2ccccc2)C(=O)c2c3n(c(=O)n2C1)CCN(C(=O)c1ccc(Br)c(Cl)c1)C3 (stereo in doubt) [Example 98, rac-((1S)-13-benzyl-4-(4-bromo-3-chloro-benzoyl)-11-methyl-4,7,9,13-tetrazatricyclo[7.5.0.0^2,7]tetradec-1-ene-8.14-dione] and N#Cc1cccc(-n2c(C(=O)NCc3ccccc3)c3n(c2=O)CCN(C(=O)c2ccc(Br)c(Cl)c2)C3)c1 [Example 44, N-benzyl-7-(4-bromo-3-chloro-benzoyl)-2-(3-cyanophenyl)-3-oxo-6,8-dihydro-5H-imidazo[1,5-a]pyrazine-1-carboxamide] fall in the same range of EC50: 500 to 5000 nM for the first, 500 to 5000 nM for the second.

C[C@@H](NC(=O)c1c2n(c(=O)n1-c1ccc(OC3CC3)cc1)CCN(C(=O)c1ccc(Br)c(Cl)c1)C2)c1cccc2nccnc12 (racemic) [Example 383, 7-(4-bromo-3-chloro-benzoyl)-2-[4-(cyclopropoxy)phenyl]-3-oxo-N-[rac-(1R)-1-quinoxalin-5-ylethyl]-6,8-dihydro-5H-imidazo[1,5-a]pyrazine-1-carboxamide] and C[C@H](NC(=O)c1c2n(c(=O)n1-c1ccc(OC3CC3)cc1)CCN(C(=O)c1ccc(Br)c(Cl)c1)C2)c1ccc(O[C@H](C)C(N)=O)cc1F (stereo in doubt) [Example 357, 7-(4-bromo-3-chloro-benzoyl)-2-[4-(cyclopropoxy)phenyl]-3-oxo-N-[rac-(1S)-1-[2-fluoro-4-[rac-(1R)-2-amino-1-methyl-2-oxo-ethoxy]phenyl]ethyl]-6,8-dihydro-5H-imidazo[1,5-a]pyrazine-1-carboxamide] fall in the same range of EC50: 100 to 500 nM for the first, 100 to 500 nM for the second.

Cc1nc2c(CNC(=O)c3c4n(c(=O)n3-c3ccc(OCC(F)(F)F)cc3)CCN(C(=O)c3ccc(Br)c(Cl)c3)C4)cccc2o1 [Example 411, 7-(4-bromo-3-chloro-benzoyl)-N-[(2-methyl-1,3-benzoxazol-4-yl)methyl]-3-oxo-2-[4-(2,2,2-trifluoroethoxy)phenyl]-6,8-dihydro-5H-imidazo[1,5-a]pyrazine-1-carboxamide] and O=C(NCc1ccc(OC2COC2)cc1F)c1c2n(c(=O)n1-c1ccc(OCC(F)(F)F)cc1)CCN(C(=O)c1ccc(Br)c(Cl)c1)C2 [Example 329, 7-(4-bromo-3-chloro-benzoyl)-N-[[2-fluoro-4-(oxetan-3-yloxy)phenyl]methyl]-3-oxo-2-[4-(2,2,2-trifluoroethoxy)phenyl]-6,8-dihydro-5H-imidazo[1,5-a]pyrazine-1-carboxamide] fall in the same range of EC50: 100 to 500 nM for the first, 100 to 500 nM for the second.

Compared with CC(C)Oc1ccc(-n2c(C(=O)NCc3ccccc3C(N)=O)c3n(c2=O)CCN(C(=O)c2ccc(Br)c(Cl)c2)C3)cc1 [Example 222, 7-(4-bromo-3-chloro-benozyl)-N-[(2-carbamoylphenyl)methyl]-2-(4-isopropoxyphenyl)-3-oxo-6,8-dihydro-5H-imidazo[1,5-a]pyrazine-1-carboxamide], NC(=O)COc1ccc(-n2c(C(=O)NCc3ccccc3)c3n(c2=O)CCN(C(=O)c2ccc(Br)c(Cl)c2)C3)cc1 [Example 285, 2-[4-(2-amino-2-oxo-ethoxy)phenyl]-N-benzyl-7-(4-bromo-3-chloro-benzoyl)-3-oxo-6,8-dihydro-5H-imidazo[1,5-a]pyrazine-1-carboxamide] is lower in EC50: over 5000 nM for the first, 500 to 5000 nM for the second. The second is the more potent here.

First: COc1ccc(-n2c(C(=O)N[C@H](C)c3ccccc3)c3n(c2=O)CCN(C(=O)c2ccc(Br)c(Cl)c2)C3)cc1 (stereo in doubt) [Example 82, 7-(4-bromo-3-chloro-benzoyl)-2-(4-methoxyphenyl)-3-oxo-N-[rac-(1R)-1-phenylethyl]-6,8-dihydro-5H-imidazo[1,5-a]pyrazine-1-carboxamide]
Second: COc1ccc(-n2c(C(=O)NC(c3ccccc3)C(C)C)c3n(c2=O)CCN(C(=O)c2ccc(Br)c(Cl)c2)C3)cc1 (racemic) [Example 160, 7-(4-bromo-3-chloro-benzoyl)-2-(4-methoxyphenyl)-3-oxo-N-[rac-(1S)-2-methyl-1-phenyl-propyl]-6,8-dihydro-5H-imidazo[1,5-a]pyrazine-1-carboxamide]
The EC50 of the first is lower: 100 to 500 nM for the first, 500 to 5000 nM for the second. The first is the more potent here.

COc1ccc(-n2c(C(=O)NCc3ncccn3)c3n(c2=O)CCN(C(=O)c2ccc(Br)c(Cl)c2)C3)cc1 [Example 157, 7-(4-bromo-3-chloro-benzoyl)-2-(4-methoxyphenyl)-3-oxo-N-(pyrimidin-2-ylmethyl)-6,8-dihydro-5H-imidazo[1,5-a]pyrazine-1-carboxamide] and COc1ccc(-n2c(C(=O)NCc3ccnnc3)c3n(c2=O)CCN(C(=O)c2ccc(Cl)c(Cl)c2)C3)cc1 [Example 53, 7-(3,4-dichlorobenzoyl)-2-(4-methoxyphenyl)-3-oxo-N-(pyridazin-4-ylmethyl)-6,8-dihydro-5H-imidazo[1,5-a]pyrazine-1-carboxamide] cannot be ordered by EC50: over 5000 nM for the first, over 5000 nM for the second.

First: COc1ccc(-n2c(C(=O)N[C@H](c3ccccc3)C(F)F)c3n(c2=O)CCN(C(=O)c2ccc(Br)c(Cl)c2)C3)cc1 (stereo in doubt) [Example 253, 7-(4-bromo-3-chloro-benzoyl)-2-(4-methoxyphenyl)-3-oxo-N-[rac-(1R)-2,2-difluoro-1-phenyl-ethyl]-6,8-dihydro-5H-imidazo[1,5-a]pyrazine-1-carboxamide]
Second: C[C@H](NC(=O)c1c2n(c(=O)n1-c1ccc(OCC(F)(F)F)cc1)CCN(C(=O)c1ccc(Br)c(Cl)c1)C2)c1ccccc1 (stereo in doubt) [Example 127, 7-(4-bromo-3-chloro-benzoyl)-3-oxo-N-[rac-(1S)-1-phenylethyl]-2-[4-(2,2,2-trifluoroethoxy)phenyl]-6,8-dihydro-5H-imidazo[1,5-a]pyrazine-1-carboxamide]
The EC50 of the first is lower: 100 to 500 nM for the first, 500 to 5000 nM for the second.

COc1ccc(-n2c(C(=O)NCc3ccc(CC(=O)O)cc3)c3n(c2=O)CCN(C(=O)c2ccc(Br)c(Cl)c2)C3)cc1 [Example 215, 2-[4-[[[7-(4-bromo-3-chloro-benzoyl)-2-(4-methoxyphenyl)-3-oxo-6,8-dihydro-5H-imidazo[1,5-a]pyrazine-1-carbonyl]amino]methyl]phenyl]acetic acid] and COc1ccc(-n2c(C(=O)NCc3ccc(C(N)=O)cc3)c3n(c2=O)CCN(C(=O)c2ccc(Cl)c(Cl)c2)C3)cc1 [Example 104, N-[(4-carbamoylphenyl)methyl]-7-(3,4-dichlorobenzoyl)-2-(4-methoxyphenyl)-3-oxo-6,8-dihydro-5H-imidazo[1,5-a]pyrazine-1-carboxamide] cannot be ordered by EC50: over 5000 nM for the first, over 5000 nM for the second.

C[C@H](NC(=O)c1c2n(c(=O)n1-c1ccc(OCC(F)(F)F)cc1)CCN(C(=O)c1ccc(Br)c(Cl)c1)C2)c1ccccc1F (stereo in doubt) [Example 264, 7-(4-bromo-3-chloro-benzoyl)-3-oxo-N-[rac-(1S)-1-(2-fluorophenyl)ethyl]-2-[4-(2,2,2-trifluoroethoxy)phenyl]-6,8-dihydro-5H-imidazo[1,5-a]pyrazine-1-carboxamide] and C[C@@H](NC(=O)c1c2n(c(=O)n1-c1ccc(OCC(F)(F)F)cc1)CCN(C(=O)c1ccc(Br)c(Cl)c1)C2)c1ccc(OC(F)(F)F)cc1F (racemic) [Example 292, 7-(4-bromo-3-chloro-benzoyl)-3-oxo-N-[rac-(1R)-1-[2-fluoro-4-(trifluoromethoxy)phenyl]ethyl]-2-[4-(2,2,2-trifluoroethoxy)phenyl]-6,8-dihydro-5H-imidazo[1,5-a]pyrazine-1-carboxamide] fall in the same range of EC50: 500 to 5000 nM for the first, 500 to 5000 nM for the second.

First: CC1Cn2c(c(C(=O)N[C@H](C)c3ccccc3F)n(-c3ccc(OC4CC4)cc3)c2=O)CN1C(=O)c1ccc(Br)c(Cl)c1 (mixture of isomers) [Example 321, (6RS)-7-(4-bromo-3-chloro-benzoyl)-2-[4-(cyclopropoxy)phenyl]-N-[(1R)-1-(2-fluorophenyl)ethyl]-6-methyl-3-oxo-6,8-dihydro-5H-imidazo[1,5-a]pyrazine-1-carboxamide]
Second: COc1ccc([C@@H](C)NC(=O)c2c3n(c(=O)n2-c2ccc(OC4CC4)cc2)C[C@H](C)N(C(=O)c2ccc(Br)c(Cl)c2)C3)cc1 (racemic) [Example 450, (6SR)-7-(4-bromo-3-chloro-benzoyl)-2-[4-(cyclopropoxy)phenyl]-N-[(1R)-1-(4-methoxyphenyl)ethyl]-6-methyl-3-oxo-6,8-dihydro-5H-imidazo[1,5-a]pyrazine-1-carobxamide]
The EC50 of the first is higher: 500 to 5000 nM for the first, under 100 nM for the second. The second is the more potent here.

First: CC(C)Oc1ccc(-n2c(C(=O)NCc3ccccc3)c3n(c2=O)CCN(C(c2ccc(Br)c(Cl)c2)C(F)(F)F)C3)cc1 (racemic) [Example 241, N-benzyl-2-(4-isopropoxyphenyl)-3-oxo-7-[rac-(1S)-1-(4-bromo-3-chloro-phenyl)-2,2,2-trifluoro-ethyl]-6,8-dihydro-5H-imidazo[1,5-a]pyrazine-1-carboxamide]
Second: O=C(NCc1ccccc1)c1c2n(c(=O)n1-c1ccc(OCC(F)F)cc1)CCN(C(=O)c1ccc(Br)c(Cl)c1)C2 [Example 260, N-benzyl-7-(4-bromo-3-chloro-benzoyl)-2-[4-(2,2-difluoroethoxy)phenyl]-3-oxo-6,8-dihydro-5H-imidazo[1,5-a]pyrazine-1-carboxamide]
The EC50 of the first is higher: over 5000 nM for the first, 500 to 5000 nM for the second. The second is the more potent here.

First: COc1ccc(CNC(=O)c2c3n(c(=O)n2CCc2ccccc2)CCN(C(=O)c2ccc(Br)c(Cl)c2)C3)cc1 [Example 15, 7-(4-bromo-3-chlorobenzoyl)-N-[(4-methoxyphenyl)methyl]-3-oxo-2-(2-phenylethyl)-5H,6H,8H-imidazo[1,5-a]pyrazine-1-carboxamide]
Second: O=C(NCc1ccccc1)c1c2n(c(=O)n1-c1ccc3sccc3c1)CCN(C(=O)c1ccc(Br)c(Cl)c1)C2 [Example 248]
The EC50 of the first is higher: over 5000 nM for the first, 100 to 500 nM for the second. The second is the more potent here.

In the case of O=C(NCc1ccccc1-c1cnccn1)c1c2n(c(=O)n1-c1ccc(OC3CC3)cc1)CCN(C(=O)c1ccc(Br)c(Cl)c1)C2 [Example 401, 7-(4-bromo-3-chloro-benzoyl)-2-[4-(cyclopropoxy)phenyl]-3-oxo-N-[(2-pyrazin-2-ylphenyl)methyl]-6,8-dihydro-5H-imidazo[1,5-a]pyrazine-1-carboxamide], the EC50 is reported as under 100 nM.

Reference: patent US11591341B2 (ALIGOS THERAPEUTICS, INC., priority 2019, dated 2023)
